Experimental data as given in ChEMBL document CHEMBL1145676, “Isolation of two flavonoids from Tanacetum microphyllum as PMA-induced ear edema inhibitors” (1997).

What was measured:
Type in all cases: functional
[1] = system: Mus musculus; assay: Inhibition of PMA-induced ear edema in Swiss mouse at 3 mg/ear after 1 hr
[2] = system: Mus musculus; assay: Inhibition of PMA-induced ear edema in Swiss mouse at 3 mg/ear after 5 hrs
[3] = system: Mus musculus; assay: Inhibition of PMA-induced ear edema in Swiss mouse at 3 mg/ear after 3 hrs

Row | Structure (SMILES) | inhibition (INH) [1] | inhibition (INH) [2] | inhibition (INH) [3]
1 | COc1ccc(-c2oc3cc(O)c(OC)c(O)c3c(=O)c2OC)cc1 [SANTIN] | 80.5% | 81.1% | 76.3%
2 | COc1ccc(-c2oc3cc(O)cc(O)c3c(=O)c2OC)cc1 [ERMANIN] | 95.1% | 78.3% | 71.1%
3 | COc1ccc2c(c1)c(CC(=O)O)c(C)n2C(=O)c1ccc(Cl)cc1 [INDOMETHACIN] | 47.3% | 51.2% | 38.6%
